# Assay results published in patent US7825253B2, “2-aminoquinoline derivatives” (Hoffmann-La Roche Inc., priority 2006, dated 2010).
# Target: T1, recombinant human 5-HT5A receptor (Homo sapiens, UniProt P47898)
# T1 construct: expressed in transfected cells; host or cells: Human Embryonic Kidney-EBNA (HEK-EBNA) cells, transient cDNA expression; membranes
# Experiment: [3H]LSD radioligand binding assay
# Details: [3H]LSD approx. 1 nM; membranes from HEK-EBNA cells transiently expressing 5-HT5A; Ki from IC50 by Cheng-Prussoff
# Procedure: A [^3H]LSD radioligand binding assay was used to determine the affinity of the compounds for the recombinant human 5-HT5A receptor, in membranes from transiently (cDNA) expressed 5-HT5A receptors in Human Embryonic Kidney-EBNA (HEK-EBNA) cells. Assay buffer consisted of Tris (50 mM) buffer containing 1 mM EGTA, 10 mM MgCl2 (pH 7.4) and 10 μM pargyline. The binding assay was carried out in 96-well-plates in the presence of [^3H]LSD (approximately 1 nM), approximately 2 μg/well of membrane protein, and 0.5 mg of Ysi-poly-l-lysine SPA beads in a final volume of 200 μl of buffer. Non-specific binding was defined using methiothepin 2 μM. Compounds were tested at 10 concentrations. All assays were conducted in duplicate and repeated at least two times. Assay plates were incubated for 120 min at room temperature before centrifugation. Bound ligand was determined using a Packard Topcount scintillation counter. IC50 values were calculated using a non-linear curve fitting program and Ki values calculated using the Cheng-Prussoff equation.
# T1 sequence (P47898 whole entry): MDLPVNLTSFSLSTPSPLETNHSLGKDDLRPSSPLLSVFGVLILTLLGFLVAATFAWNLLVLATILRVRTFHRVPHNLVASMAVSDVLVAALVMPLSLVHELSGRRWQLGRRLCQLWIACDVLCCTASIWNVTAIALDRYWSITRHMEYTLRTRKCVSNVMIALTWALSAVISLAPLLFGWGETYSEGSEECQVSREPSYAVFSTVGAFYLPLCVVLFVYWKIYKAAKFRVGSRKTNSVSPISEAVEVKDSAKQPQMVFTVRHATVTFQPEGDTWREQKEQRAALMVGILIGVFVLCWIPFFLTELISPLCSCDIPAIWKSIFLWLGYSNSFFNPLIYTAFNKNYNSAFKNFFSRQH
row,Compound,Ki [nM]
1,"Cc1ccc(CNc2ccc3c(NS(=O)(=O)c4cc(F)cc(F)c4)cccc3n2)o1 [Example 60, 3,5-Difluoro-N-{2-[(5-methyl-furan-2-ylmethyl)-amino]-quinolin-5-yl}-benzenesulfonamide]",21.7
2,"Cc1cc2cccc(Nc3ccc4c(NCc5[nH]cnc5C)cccc4n3)c2o1 [Example 125, N2-(2-Methyl-benzofuran-7-yl)-N5-(5-methyl-3H-imidazol-4-ylmethyl)-quinoline-2,5-diamine]",2.33
3,"COc1cccc(OC)c1CNc1ccc2c(NCc3cccc4[nH]ccc34)cccc2n1 [Example 109, N2-(2,6-Dimethoxy-benzyl)-N5-(1H-indol-4-ylmethyl)-quinoline-2,5-diamine]",97.3
4,"Cc1ccc(CNc2ccc3c(SCc4ccccc4)cccc3n2)o1 [Example 46, (5-Benzylsulfanyl-quinolin-2-yl)-(5-methyl-furan-2-ylmethyl)-amine]",34.1
5,"Cc1ccc(CNc2ccc3c(NCc4nc[nH]c4C)cccc3n2)o1 [Example 92, N2-(5-Methyl-furan-2-ylmethyl)-N5-(5-methyl-1H-imidazol-4-ylmethyl)-quinoline-2,5-diamine]",14.4
6,"c1cc(CNc2ccc3c(NCc4cccc5[nH]ccc45)cccc3n2)c2c(c1)OCCO2 [Example 118, N2-(2,3-Dihydro-benzo[1,4]dioxin-5-ylmethyl)-N5-(1H-indol-4-ylmethyl)-quinoline-2,5-diamine]",5.66
7,"Cc1ccc(CNc2ccc3c(NS(=O)(=O)c4ccc(Cl)s4)cccc3n2)o1 [Example 58, 5-Chloro-thiophene-2-sulfonic acid {2-[(5-methyl-furan-2-ylmethyl)-amino]-quinolin-5-yl}-amide]",7.61
8,"O=S(=O)(Nc1cccc2nc(Nc3cccc(C4CC4)c3)ccc12)c1cc(F)cc(F)c1 [Example 159, N-[2-(3-Cyclopropyl-phenylamino)-quinolin-5-yl]-3,5-difluoro-benzenesulfonamide]",28.3
9,"Cc1ccc(CNc2ccc3c(CCc4cccc(S(N)(=O)=O)c4)cccc3n2)o1 [Example 34, 3-(2-{2-[(5-Methyl-furan-2-ylmethyl)-amino]-quinolin-5-yl}-ethyl)-benzenesulfonamide]",12.4
10,"CC1(C)Cc2cccc(Nc3ccc4c(NS(=O)(=O)c5cc(F)cc(F)c5)cccc4n3)c2O1 [Example 141, N-[2-(2,2-Dimethyl-2,3-dihydro-benzofuran-7-ylamino)-quinolin-5-yl]-3,5-difluoro-benzenesulfonamide]",22
11,"COc1ccccc1CNc1ccc2c(NCc3ccc4nc[nH]c4c3)cccc2n1 [Example 114, N5-(3H-Benzoimidazol-5-ylmethyl)-N2-(2-methoxy-benzyl)-quinoline-2,5-diamine]",3.33
12,"c1cc(Nc2ccc3c(NCc4ccc5[nH]cnc5c4)cccc3n2)cc(C2CC2)c1 [Example 165, N5-(1H-Benzoimidazol-5-ylmethyl)-N2-(3-cyclopropyl-phenyl)-quinoline-2,5-diamine]",6.43
13,"Cc1ccc(CNc2ccc3c(NS(=O)(=O)Nc4ccccc4)cccc3n2)o1 [Example 145, N-(2-{[(5-methyl-2-furyl)methyl]amino}quinolin-5-yl)-N′-phenylsulfamide]",51.3
14,"Cc1ccc(CNc2ccc3c(NCc4cccnc4)cccc3n2)o1 [Example 15, N2-(5-Methyl-furan-2-ylmethyl)-N5-pyridin-3-ylmethyl-quinoline-2,5-diamine]",11.1
15,"Cc1nc[nH]c1CNc1cccc2nc(Nc3cccc4c3OC(C)(C)C4)ccc12 [Example 149, N2-(2,2-Dimethyl-2,3-dihydro-benzofuran-7-yl)-N5-(5-methyl-3H-imidazol-4-ylmethyl)-quinoline-2,5-diamine]",3.97
16,"COc1ccccc1CNc1ccc2c(NCc3cc[nH]n3)cccc2n1 [Example 98, N2-(2-Methoxy-benzyl)-N5-(1H-pyrazol-3-ylmethyl)-quinoline-2,5-diamine]",33.3
17,"COc1ccccc1CNc1ccc2c(CCc3ccccc3)cccc2n1 [Example 4, (2-Methoxy-benzyl)-(5-phenethyl-quinolin-2-yl)-amine]",9.51

# The remaining compounds from weak to strong by Ki, led by results:
row,Ki [nM],Compound
1,44.7,"Cc1ccc(CNc2ccc3c(CCc4ccccn4)cccc3n2)o1 [Example 54, (5-Methyl-furan-2-ylmethyl)-[5-(2-pyridin-2-yl-ethyl)-quinolin-2-yl]-amine]"
2,39.3,"COCc1cccc(CCc2cccc3nc(NCc4ccc(C)o4)ccc23)c1 [Example 33, {5-[2-(3-Methoxymethyl-phenyl)-ethyl]-quinolin-2-yl}-(5-methyl-furan-2-ylmethyl)-amine]"
3,35.5,"CC(C)(C)c1cccc(Nc2ccc3c(NS(=O)(=O)c4cc(F)cc(F)c4)cccc3n2)c1 [Example 161, N-[2-(3-tert-Butyl-phenylamino)-quinolin-5-yl]-3,5-difluoro-benzenesulfonamide]"
4,34.2,"Cc1nc[nH]c1CNc1cccc2nc(Nc3cccc(C4CC4)c3)ccc12 [Example 166, N2-(3-Cyclopropyl-phenyl)-N5-(5-methyl-3H-imidazol-4-ylmethyl)-quinoline-2,5-diamine]"
5,32.9,"Cc1ccc(CNc2ccc3c(NCc4cc[nH]n4)cccc3n2)o1 [Example 88, N2-(5-Methyl-furan-2-ylmethyl)-N5-(1H-pyrazol-3-ylmethyl)-quinoline-2,5-diamine]"
6,30.4,"COc1ccccc1CNc1ccc2c(NCc3c[nH]nn3)cccc2n1 [Example 106, N2-(2-Methoxy-benzyl)-N5-(1H-[1,2,3]triazol-4-ylmethyl)-quinoline-2,5-diamine]"
7,28.2,"Cc1ccc(CNc2ccc3c(Nc4cccc5cc[nH]c45)cccc3n2)o1 [Example 93, N5-(1H-Indol-7-yl)-N2-(5-methyl-furan-2-ylmethyl)-quinoline-2,5-diamine]"
8,25.4,"Cc1ccc(CNc2ccc3c(NCc4ccc(F)cc4)cccc3n2)o1 [Example 20, N5-(4-Fluoro-benzyl)-N2-(5-methyl-furan-2-ylmethyl)-quinoline-2,5-diamine]"
9,23.5,"Cc1ccc(CNc2ccc3c(CNc4ccccc4)cccc3n2)o1 [Example 22, (5-Methyl-furan-2-ylmethyl)-(5-phenylaminomethyl-quinolin-2-yl)-amine]"
10,22.7,"Cc1ccc(CNc2ccc3c(NCc4nccs4)cccc3n2)o1 [Example 100, N2-(5-Methyl-furan-2-ylmethyl)-N5-thiazol-2-ylmethyl-quinoline-2,5-diamine]"
11,21.7,"CC1Cc2cccc(Nc3ccc4c(NS(=O)(=O)c5cc(F)cc(F)c5)cccc4n3)c2O1 (racemic) [Example 134, rac-3,5-Difluoro-N-[2-(2-methyl-2,3-dihydro-benzofuran-7-ylamino)-quinolin-5-yl]-benzenesulfonamide]"
12,21.3,"Cc1ccc(CNc2ccc3c(CCc4ccccc4)cccc3n2)o1 [Example 17, (5-Methyl-furan-2-ylmethyl)-(5-phenethyl-quinolin-2-yl)-amine]"
13,19.2,"COc1ccccc1CNc1ccc2c(NS(=O)(=O)c3ccc(F)cc3)cccc2n1 [Example 61, 4-Fluoro-N-[2-(2-methoxy-benzylamino)-quinolin-5-yl]-benzenesulfonamide]"
14,18.2,"Cc1ccc(CNc2ccc3c(NC4CCS(=O)(=O)c5ccccc54)cccc3n2)o1 (racemic) [Example 143, rac-5-(1,1-Dioxo-1l6-thiochroman-4-yl)-N2-(5-methyl-furan-2-ylmethyl)-quinoline-2,5-diamine]"
15,17.1,"Cc1ccc(CNc2ccc3c(NC4CCSc5ccccc54)cccc3n2)o1 (racemic) [Example 135, rac-N2-(5-Methyl-furan-2-ylmethyl)-N5-thiochroman-4-yl-quinoline-2,5-diamine]"
16,15.4,"CC1(C)Cc2cccc(Nc3ccc4c(NC5CCS(=O)(=O)c6ccccc65)cccc4n3)c2O1 (racemic) [Example 144, rac-N2-(2,2-Dimethyl-2,3-dihydro-benzofuran-7-yl)-N5-(1,1-dioxo-1l6-thiochroman-4-yl)-quinoline-2,5-diamine]"
17,14.5,"COc1ccccc1CNc1ccc2c(NCc3cnc[nH]3)cccc2n1 [Example 101, N5-(3H-Imidazol-4-ylmethyl)-N2-(2-methoxy-benzyl)-quinoline-2,5-diamine]"
18,12.9,"Cc1ccc(CNc2ccc3c(NS(=O)(=O)c4ccc(F)c(F)c4)cccc3n2)o1 [Example 74, 3,4-Difluoro-N-{2-[(5-methyl-furan-2-ylmethyl)-amino]-quinolin-5-yl}-benzenesulfonamide]"
19,10.2,"COc1ccccc1CNc1ccc2c(NCc3ccccc3OC)cccc2n1 [Example 6, N2,N5-Bis-(2-methoxy-benzyl)-quinoline-2,5-diamine]"
20,9.09,"Cc1ccc(CNc2ccc3c(Nc4ccc(Cl)cc4)cccc3n2)o1 [Example 51, N5-(4-Chloro-phenyl)-N2-(5-methyl-furan-2-ylmethyl)-quinoline-2,5-diamine]"
21,8.45,"Cc1ccc(CNc2ccc3c(NCc4cc(F)cc(F)c4)cccc3n2)o1 [Example 120, N5-(3,5-Difluoro-benzyl)-N2-(5-methyl-furan-2-ylmethyl)-quinoline-2,5-diamine]"
22,7.57,"COc1ccccc1CNc1ccc2c(NCc3ccccc3)cccc2n1 [Example 7, N5-Benzyl-N2-(2-methoxy-benzyl)-quinoline-2,5-diamine]"
23,6.41,"COc1ccccc1CNc1ccc2c(NCc3cccc4[nH]ccc34)cccc2n1 [Example 102, N5-(1H-Indol-4-ylmethyl)-N2-(2-methoxy-benzyl)-quinoline-2,5-diamine]"
